# Test results published in patent US7521478B2, “Total synthesis of myriaporones” (Pharma Mar, S.A.U., priority 2002, dated 2009).
# Where two headings read alike, the source gives them in different places.
# What was measured:
# Type in all cases: cell-based
# LoVo = assay: Inhibition of cell growth by colorimetric SRB assay, LOVO; conditions: Homo sapiens; for LC50: read-out: LC50; for IC (total growth inhibition): read-out: TGI
# Outline: (§1)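 Absorbance of solubilized bound SRB (490 nm) quantified cell growth and viability after cells were exposed to compound for 48 h. Seeding was 5×10^3 cells per well in RPMI 1640/10% FBS, with 18 h attachment beforehand. GI, TGI and LC were calculated from means of triplicate wells.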
# DU-145 = assay: Inhibition of cell growth by colorimetric SRB assay, DU-145; conditions: Homo sapiens; for IC (total growth inhibition): read-out: TGI
# Outline: as §1
# LoVo-Dox = assay: Inhibition of cell growth by colorimetric SRB assay, LOVO-DOX; conditions: Homo sapiens; for LC50 (concentration for 50% cell killing): read-out: LC50; for IC (total growth inhibition): read-out: TGI
# Outline: as §1
# IGROV = assay: Inhibition of cell growth by colorimetric SRB assay, IGROV; conditions: Homo sapiens; for IC (total growth inhibition): read-out: TGI
# Outline: as §1
# PANC-1 = assay: Inhibition of cell growth by colorimetric SRB assay, PANC-1; conditions: Homo sapiens; for IC (total growth inhibition): read-out: TGI
# Outline: as §1
# SK-BR-3 = assay: Inhibition of cell growth by colorimetric SRB assay, SK-BR-3; conditions: for CC50 / GI50: Homo sapiens; for TGI: total growth inhibition
# Outline: as §1
# HT-29 = assay: Inhibition of cell growth by colorimetric SRB assay, HT-29; conditions: Homo sapiens; for IC (total growth inhibition): read-out: TGI
# Outline: as §1
# K-562 = assay: Inhibition of cell growth by colorimetric SRB assay, K-562; conditions: Homo sapiens; for IC (total growth inhibition): read-out: TGI
# Outline: as §1
# SK-MEL-28 = assay: Inhibition of cell growth by colorimetric SRB assay, MEL-28; conditions: Homo sapiens; for IC (total growth inhibition): read-out: TGI
# Outline: as §1
# A-549 = assay: Inhibition of cell growth by colorimetric SRB assay, A-549; conditions: Homo sapiens; for IC (total growth inhibition): read-out: TGI
# Outline: as §1
# LNCaP = assay: Inhibition of cell growth by colorimetric SRB assay, LN-caP; conditions: Homo sapiens; for IC (total growth inhibition): read-out: TGI
# Outline: as §1
# IGROV-ET = assay: Inhibition of cell growth by colorimetric SRB assay, IGROV-ET; conditions: Homo sapiens; for IC (total growth inhibition): read-out: TGI
# Outline: as §1
# HeLa-APL = assay: Inhibition of cell growth by colorimetric SRB assay, HELA-APL; conditions: Homo sapiens
# Outline: as §1
# HeLa = assay: Inhibition of cell growth by colorimetric SRB assay, HELA; conditions: Homo sapiens; for IC (total growth inhibition): read-out: TGI
# Outline: as §1
# [1] = SK-MEL-28, MEL-28, 48 hours exposure
compound,measurement,setting,value
C=C(C(=O)[C@H](COC(C)=O)[C@H](O)C1(C)O[C@@H]1[C@@H](C)/C=C\C)[C@@H](O)CC(=O)CC (stereo partly drawn) [Compound 1],LC50,"LoVo; LoVo, 48 h",12.6 µM
same,GI50,"LoVo; LOVO, 48 hours exposure",1.62 µM
same,IC (total growth inhibition),"LoVo; LOVO, 48 hours exposure",4.87 µM
same,CC50,"DU-145; DU-145, 48 h, read-out: LC50",≥ 25.2 µM
same,GI50,"DU-145; DU-145, 48 hours exposure",3.66 µM
same,IC (total growth inhibition),"DU-145; DU-145, 48 hours exposure",10.2 µM
same,LC50 (concentration for 50% cell killing),LoVo-Dox; 48 h,21.1 µM
same,GI50,"LoVo-Dox; LOVO-DOX, 48 hours exposure",3.13 µM
same,IC (total growth inhibition),"LoVo-Dox; LOVO-DOX, 48 hours exposure",8.1 µM
same,CC50,"IGROV; 48 h, read-out: LC50",17.6 µM
same,GI50,IGROV; 48 hours exposure,1.63 µM
same,IC (total growth inhibition),IGROV; 48 hours exposure,5.67 µM
same,CC50,"PANC-1; PANC-1, 48 h, read-out: LC50",21.3 µM
same,GI50,"PANC-1; PANC-1, 48 hours exposure",3.33 µM
same,IC (total growth inhibition),"PANC-1; PANC-1, 48 hours exposure",8.4 µM
same,CC50,"SK-BR-3; SK-BR-3, 48 h, read-out: LC50",3.43 µM
same,GI50,"SK-BR-3; SK-BR-3, 48 hours exposure",0.469 µM
same,TGI,"SK-BR-3; SK-BR-3, 48 hours exposure",1.11E−05 Molar
same,CC50,"HT-29; HT-29, 48 h, read-out: LC50",13.4 µM
same,GI50,"HT-29; HT-29, 48 hours exposure",1.67 µM
same,IC (total growth inhibition),"HT-29; HT-29, 48 hours exposure",5.37 µM
same,CC50,"K-562; K562, 48 h, read-out: LC50",24.6 µM
same,GI50,"K-562; K562, K-562, 48 hours exposure",1.99 µM
same,IC (total growth inhibition),"K-562; K562, K-562, 48 hours exposure",7.36 µM
same,CC50,"SK-MEL-28; SK-MEL-28, 48 h, read-out: LC50",13.6 µM
same,GI50,SK-MEL-28; [1],2.72 µM
same,IC (total growth inhibition),SK-MEL-28; [1],6.1 µM
same,CC50,"A-549; A549, 48 h, read-out: LC50",23.5 µM
same,GI50,"A-549; A549, A-549, 48 hours exposure",1.1 µM
same,IC (total growth inhibition),"A-549; A549, A-549, 48 hours exposure",5.04 µM
same,CC50,"LNCaP; 48 h, read-out: LC50",≥ 25.2 µM
same,GI50,"LNCaP; LN-caP, 48 hours exposure",1.45 µM
same,IC (total growth inhibition),"LNCaP; LN-caP, 48 hours exposure",6.31 µM
same,CC50,"IGROV-ET; 48 h, read-out: LC50",23.7 µM
same,GI50,"IGROV-ET; IGROV-ET, 48 hours exposure",3.1 µM
same,IC (total growth inhibition),"IGROV-ET; IGROV-ET, 48 hours exposure",8.58 µM
same,GI50,HeLa-APL; 48 h,1.72 µM
same,IC (total growth inhibition),"HeLa-APL; 48 h, read-out: TGI",6.23 µM
same,CC50,"HeLa; HeLa, 48 h, read-out: LC50",20.5 µM
same,GI50,"HeLa; HELA, 48 hours exposure",1.99 µM
same,IC (total growth inhibition),"HeLa; HELA, 48 hours exposure",6.66 µM
C/C=C\[C@H](C)[C@H]1OC1(C)[C@@H](O[Si](C)(C)C(C)(C)C)[C@@H](CO[Si](C)(C)C(C)(C)C)C(=O)[C@H](CO[Si](C)(C)C(C)(C)C)[C@H](CC(=O)CC)O[Si](C)(C)C(C)(C)C (stereo partly drawn) [Compound 19a],GI50,"LoVo; LOVO, 48 hours exposure",12.1 µM
same,LC50,"LoVo; LOVO, 48 hours exposure, cell killing",12.1 µM
same,IC (total growth inhibition),"LoVo; LOVO, 48 hours exposure",12.1 µM
same,GI50,"DU-145; DU-145, 48 hours exposure",12.1 µM
same,CC50,"DU-145; DU-145, 48 hours exposure, cell killing, read-out: LC50 (the source's name)",12.1 µM
same,IC (total growth inhibition),"DU-145; DU-145, 48 hours exposure",12.1 µM
same,GI50,"LoVo-Dox; LOVO-DOX, 48 hours exposure",12.1 µM
same,LC50 (concentration for 50% cell killing),"LoVo-Dox; LOVO-DOX, 48 hours exposure, cell killing",12.1 µM
same,IC (total growth inhibition),"LoVo-Dox; LOVO-DOX, 48 hours exposure",12.1 µM
same,GI50,IGROV; 48 hours exposure,12.1 µM
same,CC50,"IGROV; 48 hours exposure, cell killing, read-out: LC50 (the source's name)",12.1 µM
same,IC (total growth inhibition),IGROV; 48 hours exposure,12.1 µM
same,GI50,"PANC-1; PANC-1, 48 hours exposure",12.1 µM
same,CC50,"PANC-1; PANC-1, 48 hours exposure, cell killing, read-out: LC50 (the source's name)",12.1 µM
same,IC (total growth inhibition),"PANC-1; PANC-1, 48 hours exposure",12.1 µM
same,GI50,"SK-BR-3; SK-BR-3, 48 hours exposure",12.1 µM
same,CC50,"SK-BR-3; SK-BR-3, 48 hours exposure, cell killing, read-out: LC50 (the source's name)",12.1 µM
same,TGI,"SK-BR-3; SK-BR-3, 48 hours exposure",1.21E−05 Molar
same,GI50,"HT-29; HT-29, 48 hours exposure",12.1 µM
same,CC50,"HT-29; HT-29, 48 hours exposure, cell killing, read-out: LC50 (the source's name)",12.1 µM
same,IC (total growth inhibition),"HT-29; HT-29, 48 hours exposure",12.1 µM
same,GI50,"K-562; K562, K-562, 48 hours exposure",12.1 µM
same,CC50,"K-562; K562, K-562, 48 hours exposure, cell killing, read-out: LC50 (the source's name)",12.1 µM
same,IC (total growth inhibition),"K-562; K562, K-562, 48 hours exposure",12.1 µM
same,GI50,SK-MEL-28; [1],12.1 µM
same,CC50,"SK-MEL-28; SK-MEL-28, MEL-28, 48 hours exposure, cell killing, read-out: LC50 (the source's name)",12.1 µM
same,IC (total growth inhibition),SK-MEL-28; [1],12.1 µM
same,GI50,"A-549; A549, A-549, 48 hours exposure",12.1 µM
same,CC50,"A-549; A549, A-549, 48 hours exposure, cell killing, read-out: LC50 (the source's name)",12.1 µM
same,IC (total growth inhibition),"A-549; A549, A-549, 48 hours exposure",12.1 µM
same,GI50,"LNCaP; LN-caP, 48 hours exposure",12.1 µM
same,CC50,"LNCaP; LN-caP, 48 hours exposure, cell killing, read-out: LC50 (the source's name)",12.1 µM
same,IC (total growth inhibition),"LNCaP; LN-caP, 48 hours exposure",12.1 µM
same,GI50,"IGROV-ET; IGROV-ET, 48 hours exposure",12.1 µM
same,CC50,"IGROV-ET; IGROV-ET, 48 hours exposure, cell killing, read-out: LC50 (the source's name)",12.1 µM
same,IC (total growth inhibition),"IGROV-ET; IGROV-ET, 48 hours exposure",12.1 µM
same,CC50,"HeLa-APL; HELA-APL, 48 hours exposure, cell killing, read-out: LC50 (the source's name)",12.1 µM
same,GI50,"HeLa; HELA, 48 hours exposure",12.1 µM
same,CC50,"HeLa; HELA, 48 hours exposure, cell killing, read-out: LC50 (the source's name)",12.1 µM
same,IC (total growth inhibition),"HeLa; HELA, 48 hours exposure",12.1 µM
